According to ChEMBL document CHEMBL5375989, “Pioneering 4,11-Dioxo-4,11-dihydro-1H-anthra[2,3-d]imidazol-3-ium Compounds as Promising Survivin Inhibitors by Targeting ILF3/NF110 for Cancer Therapy” (J Med Chem, 2023):
Active and inactive are the calls of the source. The calls are words filed in the database; no cut-off is given here.

What was measured:
A549 [1] = test: Induction of autophagy in human A549 cells assessed as formation of GFP-LC3 punctate by confocal fluorescence microscopy analysis; assay type: functional, cell-based; conditions: dose 0.01-0.1 µM
A549 [2] = test: Antitumor activity against human A549 cells xenografted in BALB/c nude mouse assessed as appearance of various size of tumor necrosis at 2 mg/kg measured after 14 days by H and E staining based analysis; assay type: functional, organism-based; conditions: time 14.0 day
A549 [3] = test: Inhibition of survivin mRNA expression in human A549 cells by Q-PCR analysis; assay type: functional, cell-based; conditions: dose 0.01-0.1 µM
A549 [4] = test: Antitumor activity against human A549 cells xenografted in BALB/c nude mouse assessed as increase in apoptosis at 2 mg/kg measured after 14 days by tunel staining based analysis; assay type: functional, organism-based; conditions: time 14.0 day
A549 [5] = test: Antitumor activity against human A549 cells xenografted in BALB/c nude mouse assessed as decrease in tumor cell proliferation at 2 to 4 mg/kg measured after 14 days by PCNA staining based analysis; assay type: functional, organism-based; conditions: dose 2-4 mg/kg, time 14.0 day
A549 [6] = test: Induction of autophagy in human A549 cells assessed as increase in LC3II amount by Western blot analysis; assay type: functional, cell-based; conditions: dose 0.04-0.1 µM
A549 [7] = test: Induction of oxidative stress in human A549 cells assessed as upregulation of ROS level by DCFH-DA staining based analysis; assay type: functional, cell-based; conditions: dose 0.04-0.1 µM
A549 [8] = test: Induction of apoptosis in human A549 cells assessed as increase in caspase-3 cleavage at low concentration measured after 48 hrs by Western blot analysis; assay type: functional, cell-based
A549 [9] = test: Induction of apoptosis in human A549 cells assessed as inhibition of Bcl-2 level measured after 48 hrs by Western blot analysis; assay type: functional, cell-based; conditions: dose 0.01-0.1 µM
A549 [10] = test: Antitumor activity against human A549 cells xenografted in BALB/c nude mouse assessed as decrease in tumor cell proliferation at 2 to 4 mg/kg measured after 14 days by Ki67 staining based analysis; assay type: functional, organism-based; conditions: dose 2-4 mg/kg, time 14.0 day
A549 [11] = test: Induction of DNA damage in human A549 cells assessed as gammaH2AX accumulation at 0.04 uM by Western blot analysis; assay type: functional, cell-based
A549 [12] = test: Induction of DNA damage in human A549 cells assessed as increase in DNA percentage in tail at low concentration measured after 36 hrs by comet assay; assay type: functional, cell-based
A549 [13] = test: Inhibition of colony formation in human A549 cells assessed as suppression of colony formation at 1 nM replaced with fresh medium for every 72 hrs and measured for 15 days by crystal violet staining based assay; assay type: functional, cell-based; conditions: time 15.0 day
A549 [14] = test: Induction of apoptosis in human A549 cells assessed as upregulation of bax level measured after 48 hrs by Western blot analysis; assay type: functional, cell-based; conditions: dose 0.01-0.1 µM
A549 [15] = test: Induction of apoptosis in survivin silenced human A549 cells assessed as decrease in apoptotic rate at 0.04 uM measured after 48 hrs by AnnexinV-FITC/PI staining based flow cytometry; assay type: functional, cell-based
A549 [16] = test: Antitumor activity against human A549 cells xenografted in BALB/c nude mouse assessed as increase in apoptosis at 2 to 4 mg/kg measured after 14 days by tunel staining based analysis; assay type: functional, organism-based; conditions: dose 2-4 mg/kg, time 14.0 day
A549 [17] = test: Antitumor activity against human A549 cells xenografted in BALB/c nude mouse assessed as inhibition of tumor growth at 2 mg/kg, sc administered every 2 days for 14 days; assay type: functional, organism-based; conditions: time 14.0 day
[18] = molecular target: Baculoviral IAP repeat-containing protein 5 (Homo sapiens) (UniProt O15392); test: Inhibition of Survivin (unknown origin) expressed in HEK293T cells in presence of ILF3/NF110 by Dual luciferase reporter assay; assay type: cell-based; conditions: dose <= 2000.0 nM
Baculoviral IAP repeat-containing protein 5 (Homo sapiens), sequence (O15392 whole entry): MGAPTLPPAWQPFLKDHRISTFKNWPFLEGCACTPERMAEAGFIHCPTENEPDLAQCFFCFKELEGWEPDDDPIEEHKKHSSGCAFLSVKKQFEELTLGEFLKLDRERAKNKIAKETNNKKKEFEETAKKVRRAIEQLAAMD

A549 [19] = test: Inhibition of survivin protein expression in human A549 cells by Western blot analysis; assay type: functional, cell-based; conditions: dose 0.004 µM
A549 [20] = test: Antitumor activity against human A549 cells xenografted in BALB/c nude mouse assessed as appearance of tumor necrosis at 4 mg/kg measured after 14 days by H and E staining based analysis; assay type: functional, organism-based; conditions: time 14.0 day
A549 [21] = test: Induction of DNA damage in human A549 cells measured after 36 hrs by comet assay; assay type: functional, cell-based; conditions: dose 0.04-0.1 µM
[22] = Antiproliferative activity against mouse L929 cells assessed as inhibition of cell growth measured after 48 hrs by MTT assay; assay type: toxicity, cell-based; conditions: mouse, L929 cells
[23] = Antiproliferative activity against human HUVEC cells assessed as inhibition of cell growth measured after 48 hrs by MTT assay; assay type: toxicity, cell-based; conditions: human, HUVEC cells
A549 [24] = test: Induction of apoptosis in human A549 cells assessed as necrotic cells at 0.25 uM measured after 48 hrs by annexin V and PI staining based flow cytometry analysis (reference value: 1.47%); assay type: functional
A549 [25] = test: cells; conditions: Homo sapiens, A549, 48 h
Description: Antiproliferative activity against human A549 cells assessed as inhibition of cell growth measured after 48 hrs by MTT assay

A549 [26] = test: Induction of apoptosis in human A549 cells assessed as late apoptotic cells at 0.04 uM measured after 48 hrs by annexin V and PI staining based flow cytometry analysis (reference value: 4.70%); assay type: functional
PANC-1 = test: Antiproliferative activity against human PANC-1 cells assessed as inhibition of cell growth measured after 48 hrs by MTT assay; assay type: functional, cell-based; conditions: Homo sapiens, PANC-1, 48 h
A549 [27] = test: Induction of apoptosis in human A549 cells assessed as late apoptotic cells at 0.25 uM measured after 48 hrs by annexin V and PI staining based flow cytometry analysis (reference value: 4.70%); assay type: functional
TE-1 [28] = tested on: TE-1
Description: (§1) Antiproliferative activity against human TE-1 cells assessed as inhibition of cell growth measured after 48 hrs by MTT assay

A549 [29] = test: Induction of apoptosis in human A549 cells assessed as necrotic cells at 0.04 uM measured after 48 hrs by annexin V and PI staining based flow cytometry analysis (reference value: 1.47%); assay type: functional
A549 [30] = test: Induction of apoptosis in human A549 cells assessed as early apoptotic cells at 0.25 uM measured after 48 hrs by annexin V and PI staining based flow cytometry analysis (reference value: 0.71%); assay type: functional
HeLa = test: Antiproliferative activity against human HeLa cells assessed as inhibition of cell growth measured after 48 hrs by MTT assay; assay type: functional, cell-based; conditions: Homo sapiens, HeLa, 48 h
[31] = Antiproliferative activity against human MRC5 cells assessed as inhibition of cell growth measured after 48 hrs by MTT assay; assay type: toxicity, cell-based; conditions: human, MRC5 cells
HepG2 = test: Antiproliferative activity against human HepG2 cells assessed as inhibition of cell growth measured after 48 hrs by MTT assay; assay type: functional, cell-based; conditions: Homo sapiens, HepG2, 48 h
NCI-H460 = test: Antiproliferative activity against human NCI-H460 cells assessed as inhibition of cell growth measured after 48 hrs by MTT assay; assay type: functional, cell-based; conditions: Homo sapiens, NCI-H460, 48 h
MCF7 = test: Antiproliferative activity against human MCF7 cells assessed as inhibition of cell growth measured after 48 hrs by MTT assay; assay type: functional, cell-based; conditions: MCF7, 48 h
A549 [32] = test: Induction of apoptosis in human A549 cells assessed as viable cells at 0.04 uM measured after 48 hrs by annexin V and PI staining based flow cytometry analysis (reference value: 93.3%); assay type: functional
BXPC-3 = test: Antiproliferative activity against human BXPC-3 cells assessed as inhibition of cell growth measured after 48 hrs by MTT assay; assay type: functional, cell-based; conditions: Homo sapiens, BXPC-3, 48 h
NCI-H1299 = test: Antiproliferative activity against human NCI-H1299 cells assessed as inhibition of cell growth measured after 48 hrs by MTT assay; assay type: functional, cell-based; conditions: Homo sapiens, NCI-H1299, 48 h
A549 [33] = test: Induction of apoptosis in human A549 cells assessed as viable cells at 0.25 uM measured after 48 hrs by annexin V and PI staining based flow cytometry analysis (reference value: 93.3%); assay type: functional
143B = test: Antiproliferative activity against human 143B cells assessed as inhibition of cell growth measured after 48 hrs by MTT assay; assay type: functional, cell-based; conditions: Homo sapiens, 143B, 48 h
A549 [34] = test: Induction of apoptosis in human A549 cells assessed as necrotic cells at 0.1 uM measured after 48 hrs by annexin V and PI staining based flow cytometry analysis (reference value: 1.47%); assay type: functional
5637 [35] = tested on: 5637
Description: (§2) Antiproliferative activity against human 5637 cells assessed as inhibition of cell growth measured after 48 hrs by MTT assay

A549 [36] = test: Induction of apoptosis in human A549 cells assessed as early apoptotic cells at 0.04 uM measured after 48 hrs by annexin V and PI staining based flow cytometry analysis (reference value: 0.71%); assay type: functional
A549 [37] = test: Induction of apoptosis in human A549 cells assessed as viable cells at 0.1 uM measured after 48 hrs by annexin V and PI staining based flow cytometry analysis (reference value: 93.3%); assay type: functional
A549 [38] = test: Induction of apoptosis in human A549 cells assessed as late apoptotic cells at 0.1 uM measured after 48 hrs by annexin V and PI staining based flow cytometry analysis (reference value: 4.70%); assay type: functional
[39] = Antiproliferative activity against mouse NIH3T3 cells assessed as inhibition of cell growth measured after 48 hrs by MTT assay; assay type: toxicity, cell-based; conditions: mouse, NIH3T3 cells
ASPC1 = test: Antiproliferative activity against human ASPC1 cells assessed as inhibition of cell growth measured after 48 hrs by MTT assay; assay type: functional, cell-based
A549 [40] = test: Induction of apoptosis in human A549 cells assessed as early apoptotic cells at 0.1 uM measured after 48 hrs by annexin V and PI staining based flow cytometry analysis (reference value: 0.71%); assay type: functional
5637 [41] = test: cells; conditions: Homo sapiens, 5637, 48 h
Description: as §2

A549 [42] = test: Antitumor activity against human A549 cells xenografted in BALB/c nude mouse assessed as decrease in tumor cell proliferation at 2 mg/kg measured after 14 days by PCNA staining based analysis; assay type: functional, organism-based; conditions: time 14.0 day
A549 [43] = test: Antitumor activity against human A549 cells xenografted in BALB/c nude mouse assessed as decrease in tumor cell proliferation at 2 mg/kg measured after 14 days by Ki67 staining based analysis; assay type: functional, organism-based; conditions: time 14.0 day
TE-1 [44] = test: cells; conditions: Homo sapiens, TE-1, 48 h
Description: as §1

[45] = Homo sapiens, A549, 48 h, read-out: Activity

Row | Compound | Activity (A549 [2]) | Activity (A549 [4]) | inhibition (A549 [13]) | Activity (A549 [17]) | Activity (A549 [24]) [%] | IC50 (A549 [25]) [nM] | Activity (A549 [26]) [%] | IC50 (PANC-1) [nM] | Activity (A549 [27]) [%] | Activity (A549 [29]) [%] | Activity (A549 [30]) [%] | IC50 (HeLa) [nM] | IC50 (HepG2) [nM] | IC50 (NCI-H460) [nM] | IC50 (MCF7) [nM] | IC50 (BXPC-3) [nM] | IC50 (NCI-H1299) [nM] | IC50 (143B) [nM] | Activity (A549 [34]) [%] | Activity (A549 [36]) [%] | also measured
1 | Cn1c[n+](C)c2c1C(=O)c1cc3ccccc3cc1C2=O | Active | Active | Active | Active |  |  |  |  |  |  |  |  |  |  |  |  |  |  |  |  | Activity (A549 [1]): Dose-Dependent Effect; inhibition (A549 [3]): Active; Activity (A549 [5]): Active; Activity (A549 [6]): Dose-Dependent Effect; Activity (A549 [7]): Active; Activity (A549 [8]): Active; Activity (A549 [9]): Dose-Dependent Effect; Activity (A549 [10]): Active; Activity (A549 [11]): Active; Activity (A549 [12]): Active; Activity (A549 [14]): Dose-Dependent Effect; Activity (A549 [15]): Active; Activity (A549 [16]): Active; inhibition [18]: Dose-Dependent Effect; inhibition (A549 [19]): Active; Activity (A549 [20]): Active; Activity (A549 [21]): Dose-Dependent Effect
2 | Cn1c[n+](C)c2c1C(=O)c1cc3ccccc3cc1C2=O.[Br-] |  |  |  |  | 7.92 | 10 | 58.5 | 90 | 89.2 | 13.9 | 0.22 | 1860 | 360 | 160 | 60 | 110 | 540 | 410 | 11.5 | 1.6 | IC50 at 48 h [22]: 13600 nM; IC50 at 48 h [23]: 10500 nM; IC50 (TE-1 [28]): 30 nM; IC50 at 48 h [31]: 3980 nM; Activity (A549 [32]): 25.3%; Activity (A549 [33]): 2.43%; IC50 5637 [35]: 110 nM; Activity (A549 [37]): 8.24%; Activity (A549 [38]): 79.7%; IC50 at 48 h [39]: 14200 nM; IC50 (ASPC1; aspc1): 110 nM; Activity (A549 [40]): 0.55%
3 | COCC[n+]1c2c(n(Cc3cnccn3)c1C)C(=O)c1ccccc1C2=O.[Br-] [SEPANTRONIUM BROMIDE] | Active | Active | Active | inactive | 7.79 | 10 | 51.1 | 10 | 86.9 | 24.2 | 0.57 | 1800 | 3720 | 100 | 10 | 90 | 120 | 320 | 11.7 | 1.65 | IC50 5637 [41]: 110 nM; Activity (A549 [42]): Active; Activity (A549 [43]): Active; viability at 0.04 µM (A549 [32]; [45]): 22.2%; viability at 0.25 µM (A549 [33]; [45]): 4.72%; viability at 0.1 µM (A549 [37]; [45]): 11.3%; Activity (A549 [38]): 76.4%; IC50 (ASPC1; Homo sapiens, ASPC1, 48 h): 510 nM; Activity (A549 [40]): 1.54%; IC50 (TE-1 [44]): 8 nM
